pIC50: −log10 of the molar value.
Target: recombinant truncated ILV34 (Aspergillus fumigatus, UniProt Q4X099)
Assay: biochemical
Protocol: The assay for ILV34 is based upon the ability of this enzyme to dehydrate dihydroxyacid substrates to a keto acid. […] The appearance of the keto acid product can be monitored directly at 240 nm; alternatively it can be reacted with semicarbazide and sodium acetate and monitored at 250 nm.
Assays were carried out in 96- or 384-well plates. […] Samples were incubated at room temperature and at suitable intervals the reaction was stopped and developed by the addition of 25 p. 1 semicarbazide solution (1.26% w/v semicarbazide in 1.89% w/v sodium acetate solution). The samples were incubated for 15 mins after the final semicarbazide/sodium acetate addition and then read at 250 nm.

Chain of recombinant truncated ILV34 (Q4X099 30-606): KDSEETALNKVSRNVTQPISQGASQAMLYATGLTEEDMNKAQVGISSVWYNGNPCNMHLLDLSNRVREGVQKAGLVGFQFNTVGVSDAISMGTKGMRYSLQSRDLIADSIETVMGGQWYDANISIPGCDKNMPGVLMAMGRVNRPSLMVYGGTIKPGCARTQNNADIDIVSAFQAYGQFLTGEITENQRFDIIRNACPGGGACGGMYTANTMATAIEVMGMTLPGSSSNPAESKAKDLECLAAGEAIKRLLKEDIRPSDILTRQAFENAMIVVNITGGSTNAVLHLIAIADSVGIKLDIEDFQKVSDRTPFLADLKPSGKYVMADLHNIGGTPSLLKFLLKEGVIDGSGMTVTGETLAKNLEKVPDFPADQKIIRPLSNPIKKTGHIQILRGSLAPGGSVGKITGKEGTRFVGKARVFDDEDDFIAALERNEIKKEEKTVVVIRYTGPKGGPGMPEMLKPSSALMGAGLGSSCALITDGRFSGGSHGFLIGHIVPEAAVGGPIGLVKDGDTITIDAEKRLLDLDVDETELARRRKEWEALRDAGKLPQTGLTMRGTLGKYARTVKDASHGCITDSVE

SMILES: CC(C)C(O)C(=O)O (stereo not shown) [2-hydroxy-3-methylbutyric acid]
- pIC50: ~2.00

Source: patent publication US20110081348A1, “FUNGAL SIGNALLING AND METABOLIC ENZYMES” (priority 2004, published 2011)
